Measurements as given in ChEMBL document CHEMBL1201862, “PubChem BioAssay data set” (2004).
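Values below derive from 48-hour exposures of cells grown in 96-well plates, with endpoints linearly interpolated between the two concentrations bracketing the appropriate inhibition level. Here, GI50 denotes the concentration required for 50% inhibition of growth.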 Active and inactive are the calls of the source. No stated cut-off is given here; in the data, active = GI50 up to about 1.1 µM and inactive = higher.

Columns and labels:
Assay in all cases: inhibition of tumour cell growth, NCI panel, 48 h
OVCAR-5 = tested on: OVCAR-5
NCI/ADR-RES = tested on: NCI/ADR-RES
786-0 = tested on: 786-0
SF-295 = tested on: SF-295
MDA-N = tested on: MDA-N
HOP-62 = tested on: HOP-62
EKVX = tested on: EKVX
SF-539 = tested on: SF-539
UACC-62 = tested on: UACC-62
COLO 205 = tested on: COLO 205
RPMI-8226 = tested on: RPMI-8226
SNB-19 = tested on: SNB-19
UO-31 = tested on: UO-31
K562 = tested on: K562
NCI-H460 = tested on: NCI-H460
SN12C = tested on: SN12C
SK-MEL-2 = tested on: SK-MEL-2
Malme-3M = tested on: Malme-3M
CCRF-CEM = tested on: CCRF-CEM
NCI-H226 = tested on: NCI-H226

Row | Structure (SMILES) | GI50 (OVCAR-5) | GI50 (NCI/ADR-RES) | GI50 (786-0) | GI50 (SF-295) | GI50 (MDA-N) | GI50 (HOP-62) | GI50 (EKVX) | GI50 (SF-539) | GI50 (UACC-62) | GI50 (COLO 205) | GI50 (RPMI-8226) | GI50 (SNB-19) | GI50 (UO-31) | GI50 (K562) | GI50 (NCI-H460) | GI50 (SN12C) | GI50 (SK-MEL-2) | GI50 (Malme-3M) | GI50 (CCRF-CEM) | GI50 (NCI-H226)
1 | CCCCCCCCCc1nn2c(Cc3ccccc3)nnc2s1 | 14.4 µM (inactive) | 16.7 µM (inactive) | 19.2 µM (inactive) | 18.9 µM (inactive) | 20.6 µM (inactive) | 19.9 µM (inactive) | 15.5 µM (inactive) | 18.1 µM (inactive) | 18 µM (inactive) | 17.5 µM (inactive) | 23.6 µM (inactive) | 18.2 µM (inactive) | 13.1 µM (inactive) | 32.5 µM (inactive) | 18.5 µM (inactive) | 18.2 µM (inactive) | 19.8 µM (inactive) | – | – | –
2 | Oc1cc2c3c(c1)c1cc4c(cc1c[n+]3CC2)OCO4 | 45.6 µM (inactive) | – | 1.08 µM (active) | 2.97 µM (inactive) | 8.63 µM (inactive) | 8.45 µM (inactive) | 7.73 µM (inactive) | 2.28 µM (inactive) | 7.83 µM (inactive) | 3.73 µM (inactive) | 1.77 µM (inactive) | 1.8 µM (inactive) | 5.42 µM (inactive) | 1.57 µM (inactive) | 2.43 µM (inactive) | 1.29 µM (inactive) | 9.68 µM (inactive) | 1.16 µM (inactive) | 2.84 µM (inactive) | 2.69 µM (inactive)
3 | O=C(NCCC1CN(S(=O)(=O)C(F)(F)F)c2ccccc21)OCc1ccccc1 (centres undefined) | > 100 µM (inactive) | > 100 µM (inactive) | > 100 µM (inactive) | > 100 µM (inactive) | – | > 100 µM (inactive) | > 100 µM (inactive) | – | > 100 µM (inactive) | > 100 µM (inactive) | > 100 µM (inactive) | > 100 µM (inactive) | > 100 µM (inactive) | 66.1 µM (inactive) | > 100 µM (inactive) | – | > 100 µM (inactive) | 12 µM (inactive) | 38.6 µM (inactive) | –
4 | COC(=O)c1cc2c(c(C(=O)OC)c1O)C(=O)C=CC2=O | > 40.4 µM (inactive) | – | 35.7 µM (inactive) | 27 µM (inactive) | – | 30 µM (inactive) | > 21.2 µM (inactive) | > 41.6 µM (inactive) | > 9.1 µM (inactive) | > 50.2 µM (inactive) | > 9.1 µM (inactive) | > 42.7 µM (inactive) | > 42.9 µM (inactive) | – | > 50.1 µM (inactive) | > 42.1 µM (inactive) | > 9.1 µM (inactive) | > 40.8 µM (inactive) | 1.63 µM (inactive) | > 9.1 µM (inactive)
5 | COC(=O)c1ccc(-c2nc(C#N)c(N)o2)cc1 | > 100 µM (inactive) | – | 59.3 µM (inactive) | > 100 µM (inactive) | – | 67.9 µM (inactive) | > 100 µM (inactive) | > 100 µM (inactive) | – | > 100 µM (inactive) | > 100 µM (inactive) | 34.7 µM (inactive) | > 100 µM (inactive) | > 100 µM (inactive) | > 100 µM (inactive) | > 100 µM (inactive) | > 100 µM (inactive) | > 100 µM (inactive) | > 100 µM (inactive) | > 100 µM (inactive)
6 | COc1cc2c(c3c1c(=O)c1ccccc1n3C)C=CC(C)(C)O2 [ACRONINE] | > 100 µM (inactive) | – | 71 µM (inactive) | 32.3 µM (inactive) | – | 46.9 µM (inactive) | – | 37.8 µM (inactive) | 96.2 µM (inactive) | > 100 µM (inactive) | 27.9 µM (inactive) | > 100 µM (inactive) | 49.9 µM (inactive) | 52.1 µM (inactive) | 43.6 µM (inactive) | > 100 µM (inactive) | > 100 µM (inactive) | > 100 µM (inactive) | 79.1 µM (inactive) | > 100 µM (inactive)
7 | O=C(O)Cn1ncn(NC(=O)Cc2ccccc2)c1=S | > 10 µM (inactive) | > 10 µM (inactive) | > 10 µM (inactive) | > 10 µM (inactive) | > 10 µM (inactive) | > 10 µM (inactive) | > 10 µM (inactive) | > 10 µM (inactive) | > 10 µM (inactive) | > 10 µM (inactive) | > 10 µM (inactive) | > 10 µM (inactive) | > 10 µM (inactive) | > 10 µM (inactive) | > 10 µM (inactive) | > 10 µM (inactive) | – | > 10 µM (inactive) | > 10 µM (inactive) | –
8 | O=c1c2ccccc2nc(-c2ccccc2)n1NC(=S)Nc1ccc(Cl)cc1 | > 100 µM (inactive) | – | > 100 µM (inactive) | > 100 µM (inactive) | – | > 100 µM (inactive) | – | > 100 µM (inactive) | 55.2 µM (inactive) | > 100 µM (inactive) | 69.7 µM (inactive) | – | 61.5 µM (inactive) | 48.4 µM (inactive) | 59.4 µM (inactive) | > 100 µM (inactive) | > 100 µM (inactive) | > 100 µM (inactive) | 58.3 µM (inactive) | 96.6 µM (inactive)
9 | O=[N+]([O-])c1ccc(OCc2nnc(CCCCCCCCc3nnc(COc4ccc([N+](=O)[O-])cc4)o3)o2)cc1 | > 100 µM (inactive) | > 100 µM (inactive) | > 100 µM (inactive) | > 100 µM (inactive) | – | – | > 100 µM (inactive) | – | > 100 µM (inactive) | > 100 µM (inactive) | > 100 µM (inactive) | > 100 µM (inactive) | > 100 µM (inactive) | > 100 µM (inactive) | > 100 µM (inactive) | > 100 µM (inactive) | > 100 µM (inactive) | > 100 µM (inactive) | – | > 100 µM (inactive)
10 | O=C(O)C1C2C=CC(O2)C1C(=O)NCc1ccncc1 (centres undefined) | > 100 µM (inactive) | – | > 100 µM (inactive) | > 100 µM (inactive) | > 100 µM (inactive) | > 100 µM (inactive) | > 100 µM (inactive) | > 100 µM (inactive) | > 100 µM (inactive) | > 100 µM (inactive) | > 100 µM (inactive) | > 100 µM (inactive) | > 100 µM (inactive) | > 100 µM (inactive) | > 100 µM (inactive) | > 100 µM (inactive) | > 100 µM (inactive) | > 100 µM (inactive) | > 100 µM (inactive) | > 100 µM (inactive)
11 | CSc1nc(SC)c2c(C(N)=S)n[nH]c2n1 | – | – | 28.4 µM (inactive) | 6 µM (inactive) | – | 23.2 µM (inactive) | 22.2 µM (inactive) | 23.1 µM (inactive) | 21.8 µM (inactive) | 18.2 µM (inactive) | 23.1 µM (inactive) | 27.1 µM (inactive) | 19 µM (inactive) | 26.2 µM (inactive) | 23.6 µM (inactive) | 36.3 µM (inactive) | 24 µM (inactive) | 29.8 µM (inactive) | 26.2 µM (inactive) | 19.9 µM (inactive)
12 | S=c1cc(S)c2c(=S)sc3nc4ccccn4c(=S)c3c2s1 | > 100 µM (inactive) | – | 75.5 µM (inactive) | > 100 µM (inactive) | – | – | 81.8 µM (inactive) | 41 µM (inactive) | 36.4 µM (inactive) | – | > 100 µM (inactive) | 52.5 µM (inactive) | 72.4 µM (inactive) | 18.5 µM (inactive) | 21.3 µM (inactive) | 48.8 µM (inactive) | 56.2 µM (inactive) | > 100 µM (inactive) | 32.7 µM (inactive) | > 100 µM (inactive)
13 | CCOC(=O)/C(=C\c1ccc(N(CCC#N)CCC#N)cc1)NC(=O)c1cc([N+](=O)[O-])ccc1Cl | > 100 µM (inactive) | – | > 100 µM (inactive) | > 100 µM (inactive) | – | > 100 µM (inactive) | > 100 µM (inactive) | > 100 µM (inactive) | > 100 µM (inactive) | > 100 µM (inactive) | 56.6 µM (inactive) | > 100 µM (inactive) | 69 µM (inactive) | > 100 µM (inactive) | > 100 µM (inactive) | > 100 µM (inactive) | > 100 µM (inactive) | > 100 µM (inactive) | 55.1 µM (inactive) | > 100 µM (inactive)
14 | Cn1c(N/N=C/c2ccccc2)nc(-c2ccc([N+](=O)[O-])cc2)c(C#N)c1=O | 38.6 µM (inactive) | 86.3 µM (inactive) | 91.8 µM (inactive) | 50.1 µM (inactive) | 89.3 µM (inactive) | 77.8 µM (inactive) | 66.7 µM (inactive) | 69.2 µM (inactive) | 27.9 µM (inactive) | 44.2 µM (inactive) | 17.7 µM (inactive) | > 100 µM (inactive) | 43.6 µM (inactive) | 1.61 µM (inactive) | 32.1 µM (inactive) | 47.2 µM (inactive) | 34.4 µM (inactive) | 33.1 µM (inactive) | 26 µM (inactive) | –
15 | COC(=O)Cc1ccc(Oc2nc3ccccc3nc2-c2cccs2)cc1 | > 100 µM (inactive) | 79.4 µM (inactive) | 40.7 µM (inactive) | 30.8 µM (inactive) | – | 38.5 µM (inactive) | > 100 µM (inactive) | 52 µM (inactive) | > 100 µM (inactive) | > 100 µM (inactive) | > 100 µM (inactive) | 40.8 µM (inactive) | > 100 µM (inactive) | > 100 µM (inactive) | > 100 µM (inactive) | > 100 µM (inactive) | 53.5 µM (inactive) | > 100 µM (inactive) | > 100 µM (inactive) | 35.7 µM (inactive)
16 | N#C/C(=C/c1cccnc1)C(=O)c1ccccc1 | > 100 µM (inactive) | – | > 100 µM (inactive) | > 100 µM (inactive) | – | > 100 µM (inactive) | > 100 µM (inactive) | > 100 µM (inactive) | > 100 µM (inactive) | > 100 µM (inactive) | > 100 µM (inactive) | > 100 µM (inactive) | > 100 µM (inactive) | > 100 µM (inactive) | > 100 µM (inactive) | > 100 µM (inactive) | > 100 µM (inactive) | > 100 µM (inactive) | > 100 µM (inactive) | > 100 µM (inactive)
